Results from patent US20130287757A1, “COMPOSITION FOR THE REGENERATION OF ATROPHIC TISSUES” (MEDESTEA INTERNAZIONALE S.P.A., priority 2011, published 2013).

Key:
[1] = tested on: biopsies from chronic atrophic ulcers (base and margins); test: FACS of cell suspensions from cultured biopsies; type: cell-based, animal; conditions: for CK-1, FACS absolute value / CK-5, FACS absolute value / CK-10, FACS absolute value / CK-14, FACS absolute value / Collagen type I, FACS absolute value / Collagen type IV, FACS absolute value: geometric mean +/− Standard Deviation; for CK-1, FACS fluorescence as percentage value / CK-5, FACS fluorescence as percentage value / CK-10, FACS fluorescence as percentage value / CK-14, FACS fluorescence as percentage value / Collagen type I, FACS fluorescence as percentage value / Collagen type IV, FACS fluorescence as percentage value: relative to the isotypes, nonspecific fluorescence deducted
Protocol: The animal biopsy samples investigated are constituted of biopsies from chronic atrophic ulcers (base and margins).
The biopsies were then sectioned into twelve parts ([…] controls, 1-11, and one sample, 12, to be treated for each patient) and suspended in a final volume of 25 ml of the respective culture solutions in plates (Lab-Tek chamber slides, Nunc, Kamstrup, Denmark) of 10 cm.
One type of sample (12th portion of each biopsy investigated) was prepared, as follows: • sample-12: the biopsy findings of sample (12) were placed in plates (Lab-Tek chamber slides, Nunc, Kamstrup, Denmark) of 10 cm in culture medium in a solution Culture medium UL-MD.
All the findings were incubated for 15 days in a Heraeus incubator thermostatically controlled to a temperature of 37° C. with an atmosphere containing 5% of constant supply of CO2 (v/v in air). Two thirds of the culture medium was replaced every 7 days. All biopsy tissues used in culture constitute a possible optional substrate co-conditioning for the three-dimensional growth of the cellular samples investigated.
Cellular suspensions obtained after digestion with collagenase were transferred to 15-ml test tubes (Nunc, Kamstrup, Denmark) and fixed in 4% paraformaldehyde solution for 30 minutes at room temperature. After three washings with PBS (pH 7.4), the cells were permeabilized with Triton 0.1% for 15 minutes, […] at room temperature. The pellets of the samples (Sample, 12) and of the controls (CTRLs, 1-11) were resuspended to a final concentration of 5×10^5 cells/ml in PBS and incubated with the following primary antibodies (ABD serotec, Kidlington-Oxford, UK): anti-collagen type I, anti-collagen type anti-IV and anti-cytokeratins (CK)-1, -5, -10, -14. All monoclonal antibodies conjugated with R-phycoerythrin (PE) or fluorescein isothiocyanate (FITC) were used. Specific controls with the corresponding isotypes were divided for each monoclonal antibody (ABD serotec). The samples were submitted to quantitative analysis by a laser cytofluorometer (Epics profile II, Coulter, Hialeath, FL) at 488 nm, where the percentage of fluorescent cells (PFC) reflects the geometric mean of the field of interest. The threshold values (gates) were established using control samples labelled with the corresponding isotype. All the values were analysed with a minimum threshold of 15 000 cells.
The results relating to the expression of collagen type I, collagen type IV and of cytokeratins (CK) 1, 5, 10 and 14 were expressed with a quantitative scale relative to the fluorescence expressed as a percentage value relative to the isotypes, after deducting the assumed nonspecific fluorescence (specific gate), as follows: […]

[2] = tested on: biopsies from chronic atrophic ulcers (base and margins); test: Western Blot phenotypic analysis of cultured biopsies; type: cell-based, animal; set-up: key: −−− = absence of band; −/+ = slight presence of band; + = thin band present; ++ = medium band present; +++ = broad band present; ++++ = high band present; +++++ = diffuse band present; conditions: 15 days culture
Protocol: The animal biopsy samples investigated are constituted of biopsies from chronic atrophic ulcers (base and margins). The biopsies were then sectioned into twelve parts ([…] controls, 1-11, and one sample, 12, to be treated for each patient) and suspended in a final volume of 25 ml of the respective culture solutions in plates (Lab-Tek chamber slides, Nunc, Kamstrup, Denmark) of 10 cm. Eleven types of control were prepared: • a negative control, untreated (1), i.e. treated exclusively with saline and antibiotics (as described above); • a positive control treated (2) with cell culture media commonly used for skin biopsies; • a control-3 treated with DMEM-LG/F 12 (1:1) culture medium and with the active ingredient described in Table 4. • a control-4 treated with DMEM-LG/F 12 (1:1) culture medium and with the active ingredient described in Table 5. • a control-5 treated with DMEM-LG/F 12 (1:1) culture medium and with the active ingredient described in Table 6. • a control-6 treated with DMEM-LG/F 12 (1:1) culture medium and with the active ingredient described in Table 7. • a control-8 treated with DMEM-LG/F 12 (1:1) culture medium and with the active ingredient described in Table 8. • a control-9 treated with DMEM-LG/F 12 (1:1) culture medium and with the active ingredient described in Table 9. • a control-10 treated with DMEM-LG/F12 (1:1) culture medium and with the active ingredient described in Table 10. • a control-11 treated with DMEM-LG/F12 (1:1) culture medium and with the active ingredient described in Table 11. One type of sample (12th portion of each biopsy investigated) was prepared, as follows: • sample-12: the biopsy findings of sample (12) were placed in plates (Lab-Tek chamber slides, Nunc, Kamstrup, Denmark) of 10 cm in culture medium in a solution Culture medium UL-MD. […] Two thirds of the culture medium was replaced every 7 days. All biopsy tissues used in culture constitute a possible optional substrate co-conditioning for the three-dimensional growth of the cellular samples investigated. […] After five washings, the membranes were incubated with the respective secondary antibodies (1:1000) conjugated with horseradish peroxidase (HRP, Santa Cruz, Calif., USA) for 1 h at room temperature, as shown below in Table 12.

Molecule	CK-1, FACS absolute value [1]	CK-5, FACS absolute value [1]	CK-10, FACS absolute value [1]	CK-14, FACS absolute value [1]	Collagen type I, FACS absolute value [1]	Collagen type IV, FACS absolute value [1]	CK-1, FACS fluorescence as percentage value [1]	CK-5, FACS fluorescence as percentage value [1]	CK-10, FACS fluorescence as percentage value [1]	CK-14, FACS fluorescence as percentage value [1]	Collagen type I, FACS fluorescence as percentage value [1]	Collagen type IV, FACS fluorescence as percentage value [1]	CK-1 expression, Western Blot band [2]	CK-14 expression, Western Blot band [2]	Collagen type IV expression, Western Blot band [2]	CK-5 expression, Western Blot band [2]	CK-10 expression, Western Blot band [2]	Collagen type I expression, Western Blot band [2]
[O]=[Zn] [CTRL 6, Zinc oxide powder]	14 +/− 11	2 +/− 2	1 +/− 1	10 +/− 7	3 +/− 2	12 +/− 8	3%	0%	0%	1.7%	0.3%	1.5%	+	+	+			
CC1(C)[C@@H](O)CC[C@]2(C)[C@H]3C(=O)C=C4[C@@H]5C[C@@](C)(C(=O)O)CC[C@]5(C)CC[C@@]4(C)[C@]3(C)CC[C@@H]12 [CTRL 8, Glycyrrhetic acid]	5 +/− 3	3 +/− 1	4 +/− 1	2 +/− 1	6 +/− 4	7 +/− 5	1%	1%	0.5%	0.1%	0.9%	0.9%	−/+	−/+	−/+	−/+	+	−/+
O=C(O)c1ccccc1O [CTRL 4, Salicylic acid]	29 +/− 7	6 +/− 5	9 +/− 7	11 +/− 8	12 +/− 3	9 +/− 8	14%	0%	1.9%	1.25%	3.9%	0.3%	++	+			+	+
Papain FU (protein, UniProt P00784 134-345, looked up) Papain: IPEYVDWRQKGAVTPVKNQGSCGSCWAFSAVVTIEGIIKIRTGNLNEYSEQELLDCDRRSYGCNGGYPWSALQLVAQYGIHYRNTYPYEGVQRYCRSREKGPYAAKTDGVRQVQPYNEGALLYSIANQPVSVVLEAAGKDFQLYRGGIFVGPCGNKVDHAVAAVGYGPNYILIKNSWGTGWGENGYIRIKRGTGNSYGVCGLYTSSFYPVKN	11 +/− 9	8 +/− 5	1 +/− 1	19 +/− 14	5 +/− 4-	7 +/− 6	2%	1.2%	0%	2%	0.5%	0.1%	+	+		+		
